Results from patent US20140206681A1, “BTK INHIBITORS” (priority 2013, published 2014).

Assays:
HeLa cells = assay: [3H]Adenosine uptake functional cellular assay; assay type: cell-based; settings: Homo sapiens, HeLa, accumulation of [3H]adenosine into HeLa cells; compound range 10 μM to […]; read-out: Adenosine uptake inhibition IC50
Procedure: Compounds are also screened in an adenosine uptake functional cellular assay using the protocol described below. The adenosine uptake inhibition assay may be used to identify compounds with the potential for a negative cardiovascular side effect.
Adenosine uptake activity was determined by monitoring the accumulation of tritiated adenosine into HeLa cells (ATCC catalog # CCL-2) using a PMT-based radiometric detection instrument. […] These cells were incubated overnight at 37° C. in a humidified atmosphere with 5% (v/v) CO2. After this time the growth medium was removed and replaced with 40 μL assay medium comprising: Hanks balanced salts solution (HBSS; Thermo Fisher Catalog # SH30268.01)+5% (v/v) FBS. […] 40 μL of compound in the assay medium was dispensed into individual wells of the Cytostar-T plates and the plates were incubated for 30 minutes under ambient laboratory conditions. Following this incubation, 20 μL of 500 nM [^3H]adenosine (American Radiolabeled Chemicals Inc. Catalog # ART0287) was added in the assay medium and incubated for a further 60 minutes under ambient laboratory conditions. The amount of radiolabel accumulation was then determined using a Perkin Elmer Topcount NXT microplate reader. In brief, HeLa cells adhere to the bottom of the Cytostar-T plate, uptake of [^3H]adenosine into these cells brings the radiolabel into sufficient proximity to excite the scintillant in the base of the plates. These events are captured by single PMT, time-resolved coincidence counting. IC50 values were determined by 4 parameter robust fit of counts per second values vs. (Log10) compound concentrations.

[1] = molecular target: T1, BTK enzyme (recombinant full-length BTK, hBTK) (Homo sapiens, UniProt Q06187); assay: BTK enzyme activity assay, LANCE TR-FRET; assay type: biochemical; settings: 50 pM hBTK, 2 μM biotin-A5-peptide, 25 μM ATP; 60 min compound & enzyme incubation; read-out: IC50 BTK activity value
T1 construct: recombinant protein from baculovirus-transfected Sf9 cells: full-length BTK, 6HIS-tag cleaved; 6HIS (cleaved yes); made in house; host or cells: baculovirus-transfected Sf9 cells
T1 sequence (Q06187 whole entry): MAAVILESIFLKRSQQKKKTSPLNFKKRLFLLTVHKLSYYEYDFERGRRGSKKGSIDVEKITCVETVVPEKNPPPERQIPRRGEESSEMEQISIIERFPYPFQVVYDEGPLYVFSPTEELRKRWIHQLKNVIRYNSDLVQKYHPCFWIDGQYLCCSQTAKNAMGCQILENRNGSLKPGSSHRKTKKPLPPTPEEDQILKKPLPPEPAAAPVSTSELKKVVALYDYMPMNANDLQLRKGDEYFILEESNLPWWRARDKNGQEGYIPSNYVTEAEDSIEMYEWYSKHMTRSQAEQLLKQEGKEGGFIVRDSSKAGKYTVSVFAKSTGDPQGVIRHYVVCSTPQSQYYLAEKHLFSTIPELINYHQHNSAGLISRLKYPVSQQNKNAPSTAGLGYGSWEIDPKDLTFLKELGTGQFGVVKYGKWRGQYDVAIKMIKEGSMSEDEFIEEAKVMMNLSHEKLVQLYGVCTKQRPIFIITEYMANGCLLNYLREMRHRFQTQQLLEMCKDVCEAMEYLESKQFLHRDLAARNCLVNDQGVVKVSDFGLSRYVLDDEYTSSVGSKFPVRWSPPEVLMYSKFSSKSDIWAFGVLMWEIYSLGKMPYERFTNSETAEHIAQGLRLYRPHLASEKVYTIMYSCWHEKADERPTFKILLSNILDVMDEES

Compound: Nc1nccn2c([C@@H]3CC[C@H]4CCC(=O)N4C3)nc(-c3ccc(C(=O)Nc4ccccn4)cc3)c12 [Example 6, 4-(8-amino-3-((6R,8aS)-3-oxooctahydroindolizin-6-yl)imidazo[1,5-a]pyrazin-1-yl)-N-(pyridin-2-yl)benzamide]
- IC50 (HeLa cells): 184 nM
- IC50 [1]: 2 nM

Compound: Cc1cnc(NC(=O)c2ccc(-c3nc([C@@H]4CC[C@H]5CCC(=O)N5C4)n4ccnc(N)c34)cc2)s1 [Example 8, 4-(8-amino-3-((6R,8aS)-3-oxooctahydroindolizin-6-yl)imidazo[1,5-a]pyrazin-1-yl)-N-(5-methylthiazol-2-yl)benzamide]
- IC50 (HeLa cells): 355 nM
- IC50 [1]: 2.2 nM

Compound: Nc1nccn2c([C@H]3CC[C@@H]4CCC(=O)N4C3)nc(-c3ccc(C(=O)Nc4ccccn4)cc3)c12 [Example 9, 4-(8-amino-3-((6S,8aR)-3-oxooctahydroindolizin-6-yl)imidazo[1,5-a]pyrazin-1-yl)-N-(pyridin-2-yl)benzamide]
- IC50 (HeLa cells): 287 nM
- IC50 [1]: 194 nM

Compound: Nc1nccn2c([C@H]3CC[C@H]4CCC(=O)N4C3)nc(-c3ccc(C(=O)Nc4cc(C(F)(F)F)ccn4)cc3)c12 [Example 10, 4-(8-amino-3-((6S,8aS)-3-oxooctahydroindolizin-6-yl)imidazo[1,5-a]pyrazin-1-yl)-N-(4-(trifluoromethyl)pyridin-2-yl)benzamide]
- IC50 (HeLa cells): 1340 nM
- IC50 [1]: 14.7 nM

Compound: Nc1nccn2c([C@@H]3CC[C@@H]4CCC(=O)N4C3)nc(-c3ccc(C(=O)Nc4cc(C(F)(F)F)ccn4)cc3)c12 [Example 11, 4-(8-amino-3-((6R,8aR)-3-oxooctahydroindolizin-6-yl)imidazo[1,5-a]pyrazin-1-yl)-N-(4-(trifluoromethyl)pyridin-2-yl)benzamide]
- IC50 (HeLa cells): 511 nM
- IC50 [1]: 15.3 nM

Compound: N#Cc1ccnc(NC(=O)c2ccc(-c3nc([C@@H]4CC[C@H]5CCC(=O)N5C4)n4ccnc(N)c34)c(F)c2)c1 [Example 15, 4-{8-amino-3-[(6R,8aS)-3-oxooctahydroindolizin-6-yl]imidazo[1,5-a]pyrazin-1-yl}-N-(4-cyanopyridin-2-yl)-3-fluorobenzamide]
- IC50 (HeLa cells): 71.9 nM
- IC50 [1]: 0.21 nM

Compound: Nc1nccn2c([C@@H]3CC[C@H]4CCC(=O)N4C3)nc(-c3ccc(C(=O)Nc4cc(C5CC5)ccn4)cc3F)c12 [Example 16, 4-{8-amino-3-[(6R,8aS)-3-oxooctahydroindolizin-6-yl]imidazo[1,5-a]pyrazin-1-yl}-N-(4-cyclopropylpyridin-2-yl)-3-fluorobenzamide]
- IC50 (HeLa cells): 75.1 nM
- IC50 [1]: 0.2 nM

Compound: CCc1ccnc(NC(=O)c2ccc(-c3nc([C@@H]4CC[C@H]5CCC(=O)N5C4)n4ccnc(N)c34)cc2)c1 [Example 18, 4-{8-amino-3-[(6R,8aS)-3-oxooctahydroindolizin-6-yl]imidazo[1,5-a]pyrazin-1-yl}-N-(4-ethylpyridin-2-yl)benzamide]
- IC50 (HeLa cells): 63.5 nM
- IC50 [1]: 0.16 nM

Compound: Nc1nccn2c([C@@H]3CC[C@H]4CCC(=O)N4C3)nc(-c3ccc(C(=O)Nc4cc(C5CC5)ccn4)cc3)c12 [Example 19, 4-{8-amino-3-[(6R,8aS)-3-oxooctahydroindolizin-6-yl]imidazo[1,5-a]pyrazin-1-yl}-N-(4-cyclopropylpyridin-2-yl)benzamide]
- IC50 (HeLa cells): 233 nM
- IC50 [1]: 0.18 nM

Compound: Nc1nccn2c([C@@H]3CC[C@H]4CCC(=O)N4C3)nc(-c3ccc(C(=O)Nc4nccc(C(F)(F)F)n4)cc3)c12 [Example 20]
- IC50 (HeLa cells): 2380 nM
- IC50 [1]: 2.2 nM

Compound: CC(F)(F)c1ccnc(NC(=O)c2ccc(-c3nc([C@@H]4CC[C@H]5CCC(=O)N5C4)n4ccnc(N)c34)c(F)c2)c1 [Example 21, 4-{8-amino-3-[(6R,8aS)-3-oxooctahydroindolizin-6-yl]imidazo[1,5-a]pyrazin-1-yl}-N-[4-(1,1-difluoroethyl)pyridin-2-yl]-3-fluorobenzamide]
- IC50 (HeLa cells): 234 nM
- IC50 [1]: 0.21 nM

Compound: Nc1nccn2c([C@@H]3CC[C@H]4CCC(=O)N4C3)nc(-c3ccc(C(=O)Nc4cc(C(F)(F)F)ccn4)cc3F)c12 [Example 23, 4-{8-amino-3-[(6R,8aS)-3-oxooctahydroindolizin-6-yl]imidazo[1,5-a]pyrazin-1-yl}-3-fluoro-N-[4-(trifluoromethyl)pyridin-2-yl]benzamide]
- IC50 (HeLa cells): 4.13 nM
- IC50 [1]: 0.11 nM

Compound: Nc1nccn2c([C@@H]3CC[C@H]4CCC(=O)N4C3)nc(-c3ccc(C(=O)Nc4cc(C(F)(F)F)ccn4)c(F)c3)c12 [Example 24, 4-{8-amino-3-[(6R,8aS)-3-oxooctahydroindolizin-6-yl]imidazo[1,5-a]pyrazin-1-yl}-2-fluoro-N-[4-(trifluoromethyl)pyridin-2-yl]benzamide]
- IC50 (HeLa cells): 67 nM
- IC50 [1]: 0.45 nM

Compound: C[C@H]1OC(=O)N2C[C@H](c3nc(-c4ccc(C(=O)Nc5cc(C(F)(F)F)ccn5)cc4F)c4c(N)nccn34)CC[C@@H]12 [Example 31, 4-{8-amino-3-[(1R,6R,8aS)-1-methyl-3-oxohexahydro[1,3]oxazolo[3,4-a]pyridin-6-yl]imidazo[1,5-a]pyrazin-1-yl}-3-fluoro-N-[4-(trifluoromethyl)pyridin-2-yl]benzamide]
- IC50 (HeLa cells): 104 nM
- IC50 [1]: 0.096 nM

Compound: C[C@@H]1OC(=O)N2C[C@H](c3nc(-c4ccc(C(=O)Nc5cc(C(F)(F)F)ccn5)cc4F)c4c(N)nccn34)CC[C@@H]12 [Example 33, 4-{8-amino-3-[(1S,6R,8aS)-1-methyl-3-oxohexahydro[1,3]oxazolo[3,4-a]pyridin-6-yl]imidazo[1,5-a]pyrazin-1-yl}-3-fluoro-N-[4-(trifluoromethyl)pyridin-2-yl]benzamide]
- IC50 (HeLa cells): 90.4 nM
- IC50 [1]: 0.17 nM

Compound: COc1cc(C(=O)Nc2cc(C3CC3)ccn2)ccc1-c1nc([C@@H]2CC[C@H]3CCC(=O)N3C2)n2ccnc(N)c12 [Example 38, 4-{8-amino-3-[(6R,8aS)-3-oxooctahydroindolizin-6-yl]imidazo[1,5-a]pyrazin-1-yl}-N-(4-cyclopropylpyridin-2-yl)-3-methoxybenzamide]
- IC50 (HeLa cells): 543 nM
- IC50 [1]: 1.9 nM

Compound: Nc1nccn2c([C@@H]3CC[C@H]4COCC(=O)N4C3)nc(-c3ccc(C(=O)Nc4cc(C(F)(F)F)ccn4)cc3F)c12 [Example 39]
- IC50 (HeLa cells): 57.4 nM
- IC50 [1]: 0.12 nM

Compound: Nc1nccn2c([C@@H]3CC[C@H]4CNCC(=O)N4C3)nc(-c3ccc(C(=O)Nc4cc(C(F)(F)F)ccn4)cc3)c12 [Example 40, 4-{8-amino-3-[(7R,9aS)-4-oxooctahydro-2H-pyrido[1,2-a]pyrazin-7-yl]imidazo[1,5-a]pyrazin-1-yl}-N-[4-(trifluoromethyl)pyridin-2-yl]benzamide]
- IC50 (HeLa cells): 186 nM
- IC50 [1]: 0.22 nM

Compound: Nc1nccn2c([C@H]3CC[C@@H]4CNCC(=O)N4C3)nc(-c3ccc(C(=O)Nc4cc(C(F)(F)F)ccn4)cc3)c12 [Example 41, 4-{8-amino-3-[(7S,9aR)-4-oxooctahydro-2H-pyrido[1,2-a]pyrazin-7-yl]imidazo[1,5-a]pyrazin-1-yl}-N-[4-(trifluoromethyl)pyridin-2-yl]benzamide]
- IC50 (HeLa cells): 793 nM
- IC50 [1]: 4 nM

Compound: Nc1nccn2c([C@@H]3CC[C@H]4CCC(=O)N4C3)nc(-c3ccc(C(=O)Nc4cc(C(F)(F)F)ccn4)c(Cl)c3)c12 [Example 42, 4-{8-amino-3-[(6R,8aS)-3-oxooctahydroindolizin-6-yl]imidazo[1,5-a]pyrazin-1-yl}-2-chloro-N-[4-(trifluoromethyl)pyridin-2-yl]benzamide]
- IC50 (HeLa cells): 88 nM
- IC50 [1]: 0.52 nM

Compound: Nc1nccn2c([C@H]3CC[C@@H]4CCCC(=O)N4C3)nc(-c3ccc(C(=O)Nc4cc(C(F)(F)F)ccn4)cc3F)c12 [Example 44, 4-{8-amino-3-[(3S,9aS)-6-oxooctahydro-2H-quinolizin-3-yl]imidazo[1,5-a]pyrazin-1-yl}-3-fluoro-N-[4-(trifluoromethyl)pyridin-2-yl]benzamide]
- IC50 (HeLa cells): 88.8 nM
- IC50 [1]: 0.095 nM

Compound: Nc1nccn2c([C@@H]3CC[C@H]4CCCC(=O)N4C3)nc(-c3ccc(C(=O)Nc4cc(C(F)(F)F)ccn4)cc3F)c12 [Example 45, 4-{8-amino-3-[(3R,9aR)-6-oxooctahydro-2H-quinolizin-3-yl]imidazo[1,5-a]pyrazin-1-yl}-3-fluoro-N-[4-(trifluoromethyl)pyridin-2-yl]benzamide]
- IC50 (HeLa cells): 227 nM
- IC50 [1]: 1.7 nM

Compound: C[C@@H]1OC(=O)N2C[C@H](c3nc(-c4ccc(C(=O)Nc5cc(C6CC6)ccn5)cc4)c4c(N)nccn34)CC[C@@H]12 [Example 46, 4-{8-amino-3-[(1S,6R,8aS)-1-methyl-3-oxohexahydro[1,3]oxazolo[3,4-a]pyridin-6-yl]imidazo[1,5-a]pyrazin-1-yl}-N-(4-cyclopropylpyridin-2-yl)benzamide]
- IC50 (HeLa cells): 71.3 nM
- IC50 [1]: 0.53 nM

Compound: C[C@H]1OC(=O)N2C[C@H](c3nc(-c4ccc(C(=O)Nc5cc(C6CC6)ccn5)cc4)c4c(N)nccn34)CC[C@@H]12 [Example 47, 4-{8-amino-3-[(1R,6R,8aS)-1-methyl-3-oxohexahydro[1,3]oxazolo[3,4-a]pyridin-6-yl]imidazo[1,5-a]pyrazin-1-yl}-N-(4-cyclopropylpyridin-2-yl)benzamide]
- IC50 (HeLa cells): 31.8 nM
- IC50 [1]: 0.17 nM
